Where two headings read alike, the source gives them in different places. Marks after values point to notes of the source that are not given here.
Assays:
[1] = human, 1 uM, pH 7.4
Procedure: (§1) Human Liver Microsome Stability Assay: Human liver microsomes (HLMs) are used in a metabolic stability assay to determine the NADPH-dependent in vitro apparent intrinsic metabolic clearance (CLint,app) of a drug (primarily mediated by P450 metabolism). In the HLM assay, test compounds are incubated with HLMs & an NADPH regenerating system in 100 mM potassium phosphate buffer (pH 7.4). The HLMs used in this assay are prepared as a pool from many individual donors. The concentration of HLMs and test compound are 0.71 mg protein/ml and 1 uM, respectively. The reaction is started by the addition of microsomes and buffer to compound. At 0, 5, 10, 20, 30, and 60 minutes, the sample is crashed with ACN/IS (3 times the incubation volume), spun at 4° C. and 3500 rpm for 10 minutes. A matrix and 60 minute w/o NADPH sample are also incubated for 60 minutes serving as negative and positive controls. The matrix sample contains buffer, microsomes, and NADPH (no compound); where as, the 60 minute w/o NADPH sample contains buffer, microsomes, and compound (no NADPH). After centrifugation, the supernatant is removed from the sample, combined with equal parts of water, and stored in the refrigerator until analysis. Drug levels are quantified by mass spectrometry. Clearance is frequently expressed as an extraction ratio (Er) which is calculated as hepatic clearance/hepatic blood flow (range 0-1).

in vivo = details: male, Sprague-Dawley, rat, sc, 5 mg/kg
Procedure: (§2) Blood samples were collected via cardiac puncture after euthanization with CO2 at 0.5, 1, 2, and 4 h post-dose. Samples were placed in EDTA tubes and kept on ice. Whole brain was collected via decapitation. Brain samples were immediately stored in dry ice. Blood samples were spun down to collect plasma. Plasma and brain samples were stored at −20° C. until analysis. LC/MS/MS was used to measure plasma and brain drug levels.

[2] = rat, in vivo
Procedure: as §2

[3] = system: THLE-2 (transformed human liver epithelial) cells; experiment: THLE assay (cell viability by cellular ATP); type: cell-based; details: read-out: THLE IC50
Procedure: THLE assay: The THLE assay is predictive of general cell health and measures cell depletion in a human cell line of hepatic origin. THLE-2 (transformed human liver epithelial) cells were obtained from ATCC(CRL-2706 or CRL-10149) and cultured according to ATCC's recommendation. Media consisted of basal medium (BEGM Bullet Kit, Lonza Cat #CC-3170), supplemented with 10% fetal bovine serum (Sigma Cat #F4135) and 2.5 ng/L hEFG (BD Biosciences Cat #356052) and 700 ng/L phosphoethanolamine (Sigma Cat #p-0503). Cells were cultured in T175 human fibronectin/collagen/bovine serum albumin coated flasks. For each experiment, cells were plated onto 384 well plates (custom order, BD Biosciences Cat #359298) at a cell density of 2.5×10^3/well in a total medium volume of 25 μL/well. Plates were incubated for 24 h at 37° C., 5% CO2. […]
Following the 72 h exposure to test compounds, cell viability in each well was determined by measuring the concentration of cellular ATP using the Lonza Vialight™ Plus Cell Proliferation/Cytoxicity Kit (Lonza cat: LT07-121) according to the manufacturer's protocol. The ATP concentration was determined by reading luminescence using a Wallac Envision plate reader (Perkin Elmer, Waltham, Mass., USA). Percent of viable cells relative to no-drug treated controls was determined for each well. […]

[4] = Human Liver Microsome Stability Assay; details: HLM 0.71 mg protein/ml, 1 uM compound, NADPH; hepatic clearance/hepatic blood flow (range 0-1)
Procedure: as §1

human 5-HT4d [5] = molecular target: T1, human 5-HT4d (Homo sapiens, UniProt Q13639); experiment: Agonist-induced cAMP elevation in human 5-HT4d transfected HEK293 cells, 96 well format; type: cell-based; details: normalized to 1,000 nM serotonin; for % IA (intrinsic activity, % agonist effect) RT: RT incubation, plate format not marked
T1 construct: expressed in transfected cells; host or cells: HEK293
T1 sequence (Q13639 1-360 isoform Q13639-3): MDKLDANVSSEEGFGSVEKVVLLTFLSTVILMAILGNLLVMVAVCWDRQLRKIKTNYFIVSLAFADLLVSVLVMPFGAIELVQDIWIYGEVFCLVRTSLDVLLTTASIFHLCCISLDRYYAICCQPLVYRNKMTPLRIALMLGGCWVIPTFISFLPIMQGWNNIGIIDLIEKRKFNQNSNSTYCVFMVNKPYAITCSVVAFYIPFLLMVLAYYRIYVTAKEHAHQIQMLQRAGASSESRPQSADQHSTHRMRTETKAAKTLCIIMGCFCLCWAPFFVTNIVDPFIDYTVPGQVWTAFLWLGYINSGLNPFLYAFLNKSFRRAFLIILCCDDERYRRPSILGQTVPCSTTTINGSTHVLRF
Procedure: Agonist-induced cAMP elevation in human 5-HT4d transfected HEK293 cells, 96 well format: Human 5-HT4(d) transfected HEK293 cells were established in-house. The cells were grown at 37° C. and 5% CO2 in DMEM supplemented with 10% FCS, 20 mM HEPES (pH 7.4), 200 μg/mL hygromycin B (Gibco), 100 units/mL penicillin and 100 μg/mL streptomycin. The cells were grown to 60-80% confluence. On the previous day before treatment with compounds, dialyzed FCS (Gibco) was substituted for normal and the cells were incubated overnight. […] The cells were harvested with PBS/1 mM EDTA, centrifuged and washed with PBS. At the beginning of the assay, cell pellet was resuspended in DMEM supplemented with 20 mM HEPES, 10 μM pargyline (Sigma) and 1 mM 3-isobutyl-1-methylxanthine (Sigma) at the concentration of 1.6×10^5 cells/mL and left for 15 min at RT or 37° C. […] After incubation for 15 min at RT or 37° C., 1% Triton X-100 was added to stop the reaction (25 μL/well) and the plates were left for 30 min at RT. Homogenous time-resolved fluorescence-based cAMP (Schering) detection was made according to the manufacturer's instruction. […] Data was analyzed based on the ratio of fluorescence intensity of each well at 620 nm and 665 nm followed by cAMP quantification using cAMP standard curve. Enhancement of cAMP production elicited by each compound was normalized to the amount of cAMP produced by 1,000 nM serotonin (Sigma). Intrinsic activity is reported in Table 1, below, as % agonist effect.

human 5-HT4d [6] = molecular target: T1, human 5-HT4d; experiment: Agonist-induced cAMP elevation in human 5-HT4d transfected HEK293 cells, 384 well format; type: cell-based; details: normalized to 1 uM serotonin
Procedure: The cells were grown to 60-80% confluence. […] Intrinsic activity is reported in Table 1, below, as % agonist effect.

[7] = Brain Penetration Assay (plasma and brain drug levels by LC/MS/MS); details: rat, 5 mg/kg subcutaneous; for Brain AUC / Plasma AUC: 0.5-4 h post-dose; for Brain:Plasma ratio: ratio of AUCs
Procedure: as §2

| Structure (SMILES) | Er (extraction ratio) [4] | % IA (intrinsic activity, % agonist effect) 37° C., 96-well format (human 5-HT4d [5]) | % IA (intrinsic activity, % agonist effect) RT (human 5-HT4d [5]) | further results |
| --- | --- | --- | --- | --- |
| OC1(CN2CCC(COc3noc4cccc(O[C@@H]5CCOC5)c34)CC2)CCOCC1 [Compound X, (R)-4-((4-((4-(tetrahydrofuran-3-yloxy)benzo[d]isoxazol-3-yloxy)methyl)piperidin-1-yl)methyl)tetrahydro-2H-pyran-4-ol] | – | – | – | Er (extraction ratio) [1]: 0.62; AUC (in vivo): 1760 ng·h/mL; Brain AUC ([2]; male, Sprague-Dawley, sc, 5 mg/kg): 1790 ng·h/g; brain penetration (in words) [2]: freely crosses the blood brain barrier; IC50 ([3]; Homo sapiens, THLE-2, 72 h): > 300 µM |
| OC1(COc2cccc3onc(OCC4CCN(CC5(O)CCOCC5)CC4)c23)CCCC1 [H] | 0.83 | 104% | 30.8% | % IA (intrinsic activity, % agonist effect) 37° C., 384-well format (human 5-HT4d [6]): 50% |
| O=C(O)C1(CN2CCC(COc3noc4cccc(OCC5(CO)CCCC5)c34)CC2)CCOCC1 [G] | <0.27 | 79.0^a % | 33.0% | – |
| O=C(O)C1(CN2CCC(COc3noc4cccc(OCC(F)(F)F)c34)CC2)CCOCC1 [B] | – | 103^a % | 56.3% | Brain AUC [7]: 160 ng·h/g; Plasma AUC [7]: 4090 ng·h/mL; Brain:Plasma ratio [7]: 0.039 |

Now from value to compound, other results behind:

| Er (extraction ratio) [4] | % IA (intrinsic activity, % agonist effect) 37° C., 96-well format (human 5-HT4d [5]) | % IA (intrinsic activity, % agonist effect) RT (human 5-HT4d [5]) | Structure (SMILES) | further results |
| --- | --- | --- | --- | --- |
| 0.36 | 95.0^a % | 36.0% | CC(C)COc1cccc2onc(OCC3CCN(CC4(C(=O)O)CCCC4)CC3)c12 [D] | – |
| 0.28 | 118^a % | 55.5% | CC(C)COc1cccc2onc(OCC3CCN(CC4(C(=O)O)CCOCC4)CC3)c12 [F] | Brain AUC [7]: 319 ng·h/g; Plasma AUC [7]: 2950 ng·h/mL; Brain:Plasma ratio [7]: 0.108 |
| 0.78 | – | 39.1% | CC(C)COc1cccc2onc(OCC3CCN(CC4(O)CCOCC4)CC3)c12 [J] | IC50 ([3]; 72 h exposure, concentration range 300-0.058 μM): 56 µM; % IA (intrinsic activity, % agonist effect) 37° C., 384-well format (human 5-HT4d [6]): 55^b % |
